# Source: ChEMBL document CHEMBL1201862, “PubChem BioAssay data set” (2004)
#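 Briefly, cells in 96-well plates were exposed to five compound concentrations for 48 h, and endpoints were estimated by linear interpolation. GI50: concentration for 50% inhibition of growth.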 Calls of active or inactive are those of the source. Rule as the data show it: active = GI50 up to about 1.1 µM and inactive = higher.
# Tests used:
# Assay in all cases: NCI-60 cell line screen, 48 h
# SN12C = tested on: SN12C
# A498 = tested on: A498
# UO-31 = tested on: UO-31
# A549 = tested on: A549
# HCT-116 = tested on: HCT-116
# OVCAR-4 = tested on: OVCAR-4
# CCRF-CEM = tested on: CCRF-CEM
# MDA-MB-435 = tested on: MDA-MB-435
# SF-295 = tested on: SF-295
# Malme-3M = tested on: Malme-3M
# SK-MEL-2 = tested on: SK-MEL-2
# K562 = tested on: K562
# ACHN = tested on: ACHN
# HCT-15 = tested on: HCT-15
# PC-3 = tested on: PC-3
# EKVX = tested on: EKVX
# LOX IMVI = tested on: LOX IMVI
# CAKI-1 = tested on: CAKI-1
# M14 = tested on: M14
# SK-OV-3 = tested on: SK-OV-3
# SF-268 = tested on: SF-268
# SW-620 = tested on: SW-620
# COLO 205 = tested on: COLO 205
# HOP-92 = tested on: HOP-92
# BT-549 = tested on: BT-549
# MOLT-4 = tested on: MOLT-4
# OVCAR-3 = tested on: OVCAR-3
# UACC-62 = tested on: UACC-62
# NCI-H226 = tested on: NCI-H226
# MDA-N = tested on: MDA-N
# Hs-578T = tested on: Hs-578T
# NCI-H460 = tested on: NCI-H460
# U-251 = tested on: U-251
# HCC 2998 = tested on: HCC 2998
# NCI-H522 = tested on: NCI-H522
# IGROV-1 = tested on: IGROV-1
# DU-145 = tested on: DU-145
# SK-MEL-28 = tested on: SK-MEL-28
# SF-539 = tested on: SF-539
# 786-0 = tested on: 786-0
# SK-MEL-5 = tested on: SK-MEL-5
# UACC-257 = tested on: UACC-257
# NCI/ADR-RES = tested on: NCI/ADR-RES
# NCI-H23 = tested on: NCI-H23
# KM12 = tested on: KM12
# OVCAR-8 = tested on: OVCAR-8
# RPMI-8226 = tested on: RPMI-8226
# MCF7 = tested on: MCF7
# SNB-19 = tested on: SNB-19
# MDA-MB-231 = tested on: MDA-MB-231
# TK-10 = tested on: TK-10
# HL-60 = tested on: HL-60
# SR = tested on: SR
# T47D = tested on: T47D
# HT-29 = tested on: HT-29
# HOP-62 = tested on: HOP-62
# SNB-75 = tested on: SNB-75
# RXF 393 = tested on: RXF 393
# OVCAR-5 = tested on: OVCAR-5
compound,measurement,setting,value
O=C(CC(=O)Nc1ccc(C(=O)O)cc1)Nc1ccc(C(=O)O)cc1,GI50,SN12C,> 100 µM (inactive)
same,GI50,A498,> 100 µM (inactive)
same,GI50,UO-31,> 100 µM (inactive)
same,GI50,A549,> 100 µM (inactive)
same,GI50,HCT-116,> 100 µM (inactive)
same,GI50,OVCAR-4,> 100 µM (inactive)
same,GI50,CCRF-CEM,> 100 µM (inactive)
same,GI50,MDA-MB-435,> 100 µM (inactive)
same,GI50,SF-295,> 100 µM (inactive)
same,GI50,Malme-3M,> 100 µM (inactive)
same,GI50,SK-MEL-2,17.3 µM (inactive)
same,GI50,K562,> 100 µM (inactive)
same,GI50,ACHN,> 100 µM (inactive)
same,GI50,HCT-15,> 10 µM
same,GI50,PC-3,> 100 µM (inactive)
same,GI50,EKVX,> 100 µM (inactive)
same,GI50,LOX IMVI,> 100 µM (inactive)
same,GI50,CAKI-1,> 100 µM (inactive)
same,GI50,M14,> 100 µM (inactive)
same,GI50,SK-OV-3,> 100 µM (inactive)
same,GI50,SF-268,34.6 µM (inactive)
same,GI50,SW-620,> 100 µM (inactive)
same,GI50,COLO 205,> 100 µM (inactive)
same,GI50,HOP-92,> 100 µM (inactive)
same,GI50,BT-549,> 100 µM (inactive)
same,GI50,MOLT-4,> 100 µM (inactive)
same,GI50,OVCAR-3,> 100 µM (inactive)
same,GI50,UACC-62,37.6 µM (inactive)
same,GI50,NCI-H226,> 100 µM (inactive)
same,GI50,MDA-N,> 100 µM (inactive)
same,GI50,Hs-578T,> 100 µM (inactive)
same,GI50,NCI-H460,> 100 µM (inactive)
same,GI50,U-251,> 100 µM (inactive)
same,GI50,HCC 2998,> 100 µM (inactive)
same,GI50,NCI-H522,> 100 µM (inactive)
same,GI50,IGROV-1,> 100 µM (inactive)
same,GI50,DU-145,> 100 µM (inactive)
same,GI50,SK-MEL-28,> 100 µM (inactive)
same,GI50,SF-539,> 100 µM (inactive)
same,GI50,786-0,> 100 µM (inactive)
same,GI50,SK-MEL-5,> 100 µM (inactive)
same,GI50,UACC-257,> 100 µM (inactive)
same,GI50,NCI/ADR-RES,> 100 µM (inactive)
same,GI50,NCI-H23,> 100 µM (inactive)
same,GI50,KM12,> 100 µM (inactive)
same,GI50,OVCAR-8,> 100 µM (inactive)
same,GI50,RPMI-8226,> 100 µM (inactive)
same,GI50,MCF7,> 100 µM (inactive)
same,GI50,SNB-19,> 100 µM (inactive)
same,GI50,MDA-MB-231,> 100 µM (inactive)
same,GI50,TK-10,> 100 µM (inactive)
same,GI50,HL-60,> 100 µM (inactive)
same,GI50,SR,> 100 µM (inactive)
same,GI50,T47D,49.5 µM (inactive)
same,GI50,HT-29,> 100 µM (inactive)
Oc1ccccc1C1C=C(c2ccccc2)NC(N2CCCCC2)=C1c1nc2ccccc2[nH]1 (centres undefined),GI50,HOP-62,14.1 µM (inactive)
same,GI50,SN12C,16.1 µM (inactive)
same,GI50,UO-31,11.1 µM (inactive)
same,GI50,A549,15.7 µM (inactive)
same,GI50,HCT-116,11.7 µM (inactive)
same,GI50,OVCAR-4,13.3 µM (inactive)
same,GI50,CCRF-CEM,17.1 µM (inactive)
same,GI50,MDA-MB-435,15.6 µM (inactive)
same,GI50,SF-295,15.5 µM (inactive)
same,GI50,Malme-3M,15.8 µM (inactive)
same,GI50,SNB-75,4.57 µM (inactive)
same,GI50,K562,8.05 µM (inactive)
same,GI50,ACHN,18.2 µM (inactive)
same,GI50,HCT-15,18.2 µM
same,GI50,PC-3,11.8 µM (inactive)
same,GI50,EKVX,6.11 µM (inactive)
same,GI50,LOX IMVI,17 µM (inactive)
same,GI50,M14,13 µM (inactive)
same,GI50,RXF 393,11.4 µM (inactive)
same,GI50,SK-OV-3,13.5 µM (inactive)
same,GI50,SF-268,13.2 µM (inactive)
same,GI50,SW-620,16.3 µM (inactive)
same,GI50,COLO 205,2.19 µM (inactive)
same,GI50,HOP-92,13.7 µM (inactive)
same,GI50,BT-549,15.1 µM (inactive)
same,GI50,MOLT-4,13.7 µM (inactive)
same,GI50,OVCAR-3,14.6 µM (inactive)
same,GI50,UACC-62,15.8 µM (inactive)
same,GI50,NCI-H226,16.7 µM (inactive)
same,GI50,MDA-N,13.5 µM (inactive)
same,GI50,Hs-578T,13.4 µM (inactive)
same,GI50,NCI-H460,14.3 µM (inactive)
same,GI50,U-251,15.1 µM (inactive)
same,GI50,OVCAR-5,17.9 µM (inactive)
same,GI50,HCC 2998,3.08 µM (inactive)
same,GI50,NCI-H522,14 µM (inactive)
same,GI50,IGROV-1,14.6 µM (inactive)
same,GI50,DU-145,24.2 µM (inactive)
same,GI50,SK-MEL-28,15.9 µM (inactive)
same,GI50,SF-539,15.9 µM (inactive)
same,GI50,786-0,12.7 µM (inactive)
same,GI50,SK-MEL-5,13.9 µM (inactive)
same,GI50,UACC-257,16 µM (inactive)
same,GI50,NCI/ADR-RES,15.8 µM (inactive)
same,GI50,NCI-H23,15.3 µM (inactive)
same,GI50,KM12,16.6 µM (inactive)
same,GI50,OVCAR-8,15.9 µM (inactive)
same,GI50,RPMI-8226,9.57 µM (inactive)
same,GI50,MCF7,12.1 µM (inactive)
same,GI50,SNB-19,15 µM (inactive)
same,GI50,MDA-MB-231,11.9 µM (inactive)
same,GI50,TK-10,19.9 µM (inactive)
same,GI50,HL-60,14.2 µM (inactive)
same,GI50,SR,12.4 µM (inactive)
same,GI50,T47D,18.9 µM (inactive)
same,GI50,HT-29,15.2 µM (inactive)
N#Cc1c(Nc2ccc(F)cc2)[n+]([O-])c2ccc(Cl)cc2[n+]1[O-],GI50,HOP-62,4.52 µM (inactive)
same,GI50,SN12C,2.55 µM (inactive)
same,GI50,A498,2.88 µM (inactive)
same,GI50,UO-31,4.58 µM (inactive)
same,GI50,A549,0.568 µM (active)
same,GI50,HCT-116,3.05 µM (inactive)
same,GI50,OVCAR-4,2.03 µM (inactive)
same,GI50,CCRF-CEM,2.62 µM (inactive)
same,GI50,MDA-MB-435,4.04 µM (inactive)
same,GI50,SF-295,1.85 µM (inactive)
same,GI50,Malme-3M,27.5 µM (inactive)
same,GI50,SNB-75,17.7 µM (inactive)
same,GI50,SK-MEL-2,3.67 µM (inactive)
same,GI50,K562,2.47 µM (inactive)
same,GI50,HCT-15,2.5 µM
same,GI50,PC-3,4.81 µM (inactive)
same,GI50,LOX IMVI,0.975 µM (active)
same,GI50,CAKI-1,3.18 µM (inactive)
same,GI50,M14,3.36 µM (inactive)
same,GI50,RXF 393,4.36 µM (inactive)
same,GI50,SK-OV-3,4.06 µM (inactive)
same,GI50,SF-268,2.53 µM (inactive)
same,GI50,SW-620,3.78 µM (inactive)
same,GI50,COLO 205,1.95 µM (inactive)
same,GI50,HOP-92,2.14 µM (inactive)
same,GI50,BT-549,8.93 µM (inactive)
same,GI50,MOLT-4,2.52 µM (inactive)
same,GI50,OVCAR-3,2.62 µM (inactive)
same,GI50,UACC-62,3.66 µM (inactive)
same,GI50,NCI-H226,4.51 µM (inactive)
same,GI50,MDA-N,6.73 µM (inactive)
same,GI50,Hs-578T,38.3 µM (inactive)
same,GI50,NCI-H460,2.38 µM (inactive)
same,GI50,U-251,2.38 µM (inactive)
same,GI50,IGROV-1,1.33 µM (inactive)
same,GI50,DU-145,11.8 µM (inactive)
same,GI50,SK-MEL-28,16.1 µM (inactive)
same,GI50,SF-539,2.56 µM (inactive)
same,GI50,786-0,3.34 µM (inactive)
same,GI50,SK-MEL-5,3.91 µM (inactive)
same,GI50,UACC-257,2.91 µM (inactive)
same,GI50,NCI/ADR-RES,1.9 µM (inactive)
same,GI50,NCI-H23,3.84 µM (inactive)
same,GI50,KM12,5.57 µM (inactive)
same,GI50,OVCAR-8,3.55 µM (inactive)
same,GI50,RPMI-8226,2.72 µM (inactive)
same,GI50,MCF7,2.11 µM (inactive)
same,GI50,SNB-19,6 µM (inactive)
same,GI50,MDA-MB-231,2.66 µM (inactive)
same,GI50,TK-10,19.9 µM (inactive)
same,GI50,SR,1.57 µM (inactive)
same,GI50,T47D,2.89 µM (inactive)
same,GI50,HT-29,3.47 µM (inactive)
